Laboratory results: patent US10085983B2, “Azabicyclo derivatives, process for preparation thereof and medical use thereof” (Shanghai Haiyan Pharmaceutical Technology Co., Ltd., priority 2014, dated 2018)

Columns and labels:
H1975 cells = test: Cell growth inhibition by MTT assay, H1975 cells; format: cell-based; settings: for IC50: MTT assay, 72 hours; for Selective inhibitory activity against cell growth [IC50 (A431 cell)/IC50 (H1975 cell)]: ratio of MTT IC50 values;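 as to all read-outs here: MTT read-out in 96-well plates after 72 h compound exposure of H1975 and A431 cells, with selectivity given as the A431 IC50 divided by the H1975 IC50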
Description: (§1) The steps of the MTT assay were carried out using methods well known to those skilled in the art, and all the reagents used in the methods are commercially available.
(§2) After the first wash, another 1.5 mL of trypsin/EDTA was added to digest the adherent cells until the cells detached. Then 3.5 mL of the culture medium was added to terminate the digestion. The digested cell suspension was transferred to a 15 mL centrifuge tube and centrifuged at 1300 rpm for 3 minutes. The supernatant was discarded and the cells were resuspended in fresh medium. The cells were then counted and diluted to the following concentrations: 27,800 cells per milliliter of H1975 cells, 33,300 cells per milliliter of A431 cells and NIH3T3 cells (purchased from the Cell Bank of the Type Culture Collection Committee, Chinese Academy of Sciences).
(§3) After the drug was added, the cells were incubated in an incubator for 72 hours. 10 μL of 5 mg/ml MTT (Sigma, M5655) solution was added to each well. The 96-well plate was then incubated in a 37° C. and 5% CO2 incubator for 4 h.
(§4) The plate was then centrifuged at 2000 rpm for 5 min. After the supernatant was removed, 150 μl of DMSO was added to each well and the plate was shaken in a shaker until all crystal violet was dissolved.

NIH3T3 cells = test: Toxicity test on NIH3T3 cells by MTT assay; format: cell-based
Description: as §1, §2, §3, §4

[1] = molecular target: EGFR phosphorylation in H1975 (EGFR T790M mutant) cells (Homo sapiens (Human), UniProt P00533, L858R/T790M); test: Inhibition of EGFR phosphorylation in H1975 cells (ELISA); format: cell-based; settings: for IC50: ELISA of EGFR phosphorylation, 1 h compound treatment, read-out: H1975 cell (IC50/μM); for Selective inhibitory activity against targets at the cell level [IC50 (A431 cell)/IC50 (H1975 cell)]: ratio of ELISA IC50 values;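 as to all read-outs here: Phospho-EGFR in cell lysates measured by capture-antibody ELISA with TMB substrate after compound exposure, cells given DMSO alone (0.5% final) serving as control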
Description: (§5) In the following methods, the reagents used, the preparation methods of solutions, the cell treatment and the preparation steps of the lysis solution, as well as the ELISA assay steps, were carried out according to the instructions of R&D DYC3570, R&D DYC1095E and R&D DYC1095BE.
(§6) Cell lysis solution: Cell lysis buffer+10 μg/mL Aprotinin (Sigma)+10 μg/mL Leupeptin (Sigma), prepared on site.
(§7) Wash buffer: PBS buffer containing 0.05% (v/v) Tween-20.
(§8) Blocking solution: PBS buffer containing 1% (w/v) BSA.
(1) H1975 cells (purchased from the Cell Bank of the Type Culture Collection Committee, Chinese Academy of Sciences) were seeded into 96-well plates at a density of 1×10^4/well, each cell containing 90 μl of RPMI1640 medium with 10% (V/V) FBS, and cultured overnight at 37° C. in 5% (v/v) CO2.
(2) The compounds to be tested were diluted in accordance with the drug dilution method in the MTT assay. 10 μL of the diluted compound or diluted DMSO was added to the corresponding wells of the cell culture plate, and the final concentration of DMSO was 0.5% (V/V). The plate was cultured at 37° C. in 5% (v/v) CO2 for 1 h. The cell culture system treated with DMSO alone was used as cell control.
(3) The medium was removed and then 100 μL of cell lysis solution was added. The plate was sealed and placed in a refrigerator at −80° C. overnight. The cell lysis buffer was used as blank control.
The assay was conducted according to the instructions given in R&D DYC1095E or R&D DYC1095BE.
(1) R&D capture antibody ((DYC1095BE or DYC1095E)) was diluted with PBS in the proportion of 1:180.
(§9) (2) The plate was washed 3 times with 360 μL of the wash buffer.
(3) 300 μL of the blocking solution was added and the plate was incubated at 25° C. with shaking for 2 hours.
(4) The plate was washed 3 times with 360 μL of the wash buffer.
(§10) (5) 40 μL of cell lysis buffer and 60 μL of cell lysis solution were added and the plate was incubated at 25° C. with shaking for 2 hours.
(§11) (6) The plate was washed 3 times with 360 μL of the wash buffer.
(§12) (7) The detection antibody was diluted with the detection antibody diluent in the proportion specified in the instructions of the kit. 100 μL of the diluted antibody was added to each well and the plate was incubated at 25° C. with shaking in dark for 1 h.
(8) The plate was washed 3 times with 360 μL of wash buffer.
(9) A reagent and B reagent in the TMB substrate (R&D DY999) were mixed in 1:1. 100 μL of the mixture was added to each well and incubated in dark at 25° C. with shaking for 20 min.
(§13) (10) 50 μL of 2N H2SO4 was added to each well.
(11) The plate was read with a microplate reader (Thermo Multiskan K3). OD 450 values and OD570 values of the cell control, blank control, and drug treatment wells were measured. ODcell, ODblank and ODdrug treatment were obtained by subtracting the corresponding OD570 value from the OD 450 value of the same well.
2.3 Data Analysis Inhibition rate (%)=100%×(ODcell−ODdrug treatment)/(ODcell−ODblank)

[2] = molecular target: EGFR phosphorylation in A431 (EGFR wild-type) cells (Homo sapiens (Human), UniProt P00533); test: Inhibition of EGFR phosphorylation in A431 cells (ELISA); format: cell-based; settings: 1 h compound treatment, EGF stimulation, read-out: A431 cell (IC50/μM)
Description: as §5
I. Reagents and Solutions
as §6, §7, §8
3.1 A431 Cell Treatment and Testing Procedures
(1) A431 cells (purchased from the Cell Bank of the Type Culture Collection Committee, Chinese Academy of Sciences) were seeded in 96-well plates at a density of 1×10^4/well in 90 μl of DMEM medium containing 10% FBS and cultured at 37° C. in 5% CO2 overnight.
(2) The A431 cell culture medium was replaced with 90 μl of serum-free DMEM medium and the plate was cultured overnight.
(3) The compound to be tested was diluted according to the drug dilution method in MTT assay. 10 μL of the diluted compound or diluted DMSO was added to the corresponding wells of the cell culture plate, and the final concentration of DMSO was 0.5%. The plate was cultured at 37° C. in 5% CO2 for 1 hour. […] The cells without EGF and drug treatment were used as cell control, and the cells treated with EGF without drugs were used as EGF control.
(4) The medium was removed and then 100 μL of the cell lysis solution was added. The plate was sealed and placed in a refrigerator at −80° C. overnight.
The assay was conducted according to the instructions given in R&D DYC3570E.
(1) R&D capture antibody (DYC3570E) was diluted with PBS in the proportion of 1:180.
as §9
(3) 200 μL of the blocking solution was added and the plate was incubated at 25° C. with shaking for 2 hours.
(4) The plate was washed 3 times with 360 μL of wash buffer.
as §10, §11, §12
(8) The plate was washed 3 times with 360 μL of the wash buffer.
(9) A reagent and B reagent in TMB substrate (R&D DY999) were mixed in 1:1. 100 μL of the mixture was added to each well and incubated in dark at 25° C. with shaking for 20 min.
as §13
(11) The plate was read with a microplate reader (Thermo Multiskan K3). OD 450 values and OD570 values of the cell control, blank control, and drug treatment wells were measured. ODEGF, ODdrug and ODcell were obtained by subtracting the corresponding OD570 value from the OD 450 value of the same well.
3.3 Data Analysis Inhibition rate (%)=100%×(ODEGF−ODdrug)/(ODEGF−ODcell)

wild-type EGFR kinase = wild-type EGFR kinase (Homo sapiens (Human), UniProt P00533); settings: read-out: EGFR WT (IC50/μM); z'-lyte assay, 10 μM ATP
Description: All reagents used in the following z′-lyte assay were purchased from Invitrogen.
The working concentrations of each component in 10 μL wild-type EGFR kinase reaction system were: 10 μM ATP, 0.8 ng/μL wild-type EGFR kinase, 2 μM Tyr04 substrate (Invitrogen, PV3193). The concentration of DMSO after addition of the compound to be tested was 2 vol %.
10 mM drug stock solution was dissolved at room temperature and gradiently diluted to a final concentration of 4-0.002 μM with 8 vol % DMSO solution. […] Then 2.5 μl of ATP was added to initiate the reaction. Wherein, ATP was replaced by the reaction buffer in well C1, no drug was added to well C2, and the phosphorylated substrate was added to well C3 according to the instructions. The mixture was allowed to react at 25° C. in a shaker in dark for 60 min. 5 μL of Development Reagent B (Invitrogen, diluted with TR-FRET dilution buffer) was added and allowed to react at room temperature in the shaker for 60 minutes.
The inhibition rate was calculated according to the following method (refer to the instructions of Invitrogen, PV3193):
1. ER=Coumarin Emission (450 nm)/Fluorescein Emission (520 nm)
The half-inhibitory concentration IC50 was obtained through fitting calculation by using XLFIT 5.0 software (IDBS, UK).

A431 cells = test: Cell growth inhibition by MTT assay, A431 cells; format: cell-based
Description: as §1, §2, §3, §4

[3] = molecular target: T790M/L858R double mutant EGFR kinase (Homo sapiens (Human), UniProt P00533, L858R/T790M); test: z'-lyte assay of inhibitory activity on T790M/L858R double mutant EGFR kinase; format: biochemical; settings: for Selective inhibitory activity against enzymes [IC50 (EGFR WT)/IC50 (T790M/L858R)]: ratio of enzyme IC50 values; for IC50: z'-lyte assay, 25 μM ATP
Chain of T790M/L858R double mutant EGFR kinase (P00533 25-1210 T790M/L858R): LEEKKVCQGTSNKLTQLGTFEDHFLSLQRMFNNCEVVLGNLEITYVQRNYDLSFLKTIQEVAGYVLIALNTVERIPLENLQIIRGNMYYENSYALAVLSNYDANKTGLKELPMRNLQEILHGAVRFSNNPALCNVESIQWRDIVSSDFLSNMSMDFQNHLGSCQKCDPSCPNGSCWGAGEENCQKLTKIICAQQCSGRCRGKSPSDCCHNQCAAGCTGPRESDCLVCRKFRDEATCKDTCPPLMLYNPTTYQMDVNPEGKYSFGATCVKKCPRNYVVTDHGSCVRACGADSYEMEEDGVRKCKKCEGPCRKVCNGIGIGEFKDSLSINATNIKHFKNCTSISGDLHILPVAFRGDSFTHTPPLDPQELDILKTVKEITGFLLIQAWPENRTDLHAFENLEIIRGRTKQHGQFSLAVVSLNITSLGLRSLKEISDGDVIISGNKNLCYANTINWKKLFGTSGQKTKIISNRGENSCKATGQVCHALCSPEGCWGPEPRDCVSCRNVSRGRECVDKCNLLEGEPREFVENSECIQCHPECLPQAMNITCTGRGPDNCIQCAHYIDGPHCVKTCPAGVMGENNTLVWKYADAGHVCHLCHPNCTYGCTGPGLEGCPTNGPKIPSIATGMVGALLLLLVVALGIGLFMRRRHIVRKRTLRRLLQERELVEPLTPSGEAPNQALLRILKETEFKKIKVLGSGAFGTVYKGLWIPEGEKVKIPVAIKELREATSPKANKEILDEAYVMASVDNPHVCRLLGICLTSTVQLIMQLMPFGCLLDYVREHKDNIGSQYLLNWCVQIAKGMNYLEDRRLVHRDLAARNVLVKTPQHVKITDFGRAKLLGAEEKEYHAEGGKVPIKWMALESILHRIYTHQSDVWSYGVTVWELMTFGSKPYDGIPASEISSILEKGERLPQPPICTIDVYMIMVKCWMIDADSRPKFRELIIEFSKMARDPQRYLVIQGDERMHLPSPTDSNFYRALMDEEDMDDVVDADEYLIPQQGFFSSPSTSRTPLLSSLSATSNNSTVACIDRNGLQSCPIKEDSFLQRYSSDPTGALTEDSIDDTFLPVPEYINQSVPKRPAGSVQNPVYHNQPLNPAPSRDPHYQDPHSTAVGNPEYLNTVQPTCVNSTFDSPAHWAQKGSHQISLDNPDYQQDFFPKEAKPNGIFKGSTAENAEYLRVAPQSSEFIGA

Chain of EGFR phosphorylation in H1975 (EGFR T790M mutant) cells (P00533 25-1210 T790M/L858R): as above
Chain of EGFR phosphorylation in A431 (EGFR wild-type) cells (P00533 25-1210): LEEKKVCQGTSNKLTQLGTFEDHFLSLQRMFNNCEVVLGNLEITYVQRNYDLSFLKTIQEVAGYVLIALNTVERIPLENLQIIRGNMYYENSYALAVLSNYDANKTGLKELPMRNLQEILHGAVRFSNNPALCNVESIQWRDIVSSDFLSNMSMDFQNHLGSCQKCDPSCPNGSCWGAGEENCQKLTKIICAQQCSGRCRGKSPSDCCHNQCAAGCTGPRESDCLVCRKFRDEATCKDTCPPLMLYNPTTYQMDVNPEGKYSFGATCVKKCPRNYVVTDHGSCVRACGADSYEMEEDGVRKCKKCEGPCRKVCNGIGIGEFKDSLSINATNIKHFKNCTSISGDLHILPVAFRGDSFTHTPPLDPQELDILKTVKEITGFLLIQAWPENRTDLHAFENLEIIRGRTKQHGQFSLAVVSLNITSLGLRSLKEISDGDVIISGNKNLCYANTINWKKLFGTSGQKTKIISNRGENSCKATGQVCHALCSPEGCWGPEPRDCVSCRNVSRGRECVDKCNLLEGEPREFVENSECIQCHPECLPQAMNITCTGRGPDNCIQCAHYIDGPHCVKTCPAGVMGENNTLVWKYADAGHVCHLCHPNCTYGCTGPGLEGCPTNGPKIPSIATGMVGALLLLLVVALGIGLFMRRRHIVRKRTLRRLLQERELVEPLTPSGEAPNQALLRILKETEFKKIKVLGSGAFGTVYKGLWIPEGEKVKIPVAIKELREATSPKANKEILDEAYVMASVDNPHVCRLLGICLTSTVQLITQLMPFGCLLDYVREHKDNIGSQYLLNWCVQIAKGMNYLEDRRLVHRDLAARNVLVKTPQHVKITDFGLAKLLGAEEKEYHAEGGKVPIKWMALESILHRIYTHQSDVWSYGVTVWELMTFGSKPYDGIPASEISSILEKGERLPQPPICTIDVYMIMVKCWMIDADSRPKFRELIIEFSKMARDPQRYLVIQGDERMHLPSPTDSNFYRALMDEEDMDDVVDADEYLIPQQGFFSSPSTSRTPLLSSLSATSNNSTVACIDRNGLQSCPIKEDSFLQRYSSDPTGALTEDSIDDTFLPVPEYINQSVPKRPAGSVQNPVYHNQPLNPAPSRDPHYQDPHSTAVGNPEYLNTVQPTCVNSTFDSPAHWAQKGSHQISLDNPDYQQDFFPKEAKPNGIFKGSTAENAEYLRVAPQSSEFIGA
Chain of wild-type EGFR kinase (P00533 25-1210): as above

For `CN(C)C/C=C/C(=O)Nc1cc2c(Nc3ccc(F)c(Cl)c3)ncnc2cc1O[C@H]1CCOC1` [BIBW2992, alfatinib, reference compound], the IC50 (H1975 cells; Homo sapiens, NCI-H1975) was 0.088 µM and the IC50 (NIH3T3 cells; Mus musculus, NIH3T3, 72 hours) was 2.75 µM.
With `C=CC(=O)Nc1cc(Nc2ncc3ccc(-c4cnn(C)c4)n3n2)c(OC)cc1N(C)CCN(C)C` [Compound J-1, N-(2-((2-(dimethylamino)ethyl)(methyl)amino)-4-methoxy-5-(7-(1-methyl-1H-pyrazol-4-yl)pyrrolo[1,2-f][1,2,4]triazin-2-ylamino)phenyl)acrylamide] the IC50 (H1975 cells) was under 0.00457 µM, the “Selective inhibitory activity against cell growth [IC50 (A431 cell)/IC50 (H1975 cell)]” value (H1975 cells) was 71.6 and the IC50 [1] was 0.012 µM. The “Selective inhibitory activity against targets at the cell level [IC50 (A431 cell)/IC50 (H1975 cell)]” value [1] was 9.3, the IC50 [2] was 0.112 µM and the IC50 (wild-type EGFR kinase) was 0.004 µM. For the same compound, the IC50 (A431 cells; 72 hours) was 0.327 µM, the IC50 (NIH3T3 cells; 72 hours) was 4.83 µM and the “Selective inhibitory activity against enzymes [IC50 (EGFR WT)/IC50 (T790M/L858R)]” value [3] was 4. It also gave an IC50 [3] of 0.001 µM.
With `C=CC(=O)Nc1cc(Nc2ncc3ccc(-c4cnn(C)c4)n3n2)c(OC)cc1N1CCC(N(C)C)CC1` [Compound J-2, N-(2-(4-(dimethylamino)piperidin-1-yl)-4-methoxy-5-(7-(1-methyl-1H-pyrazol-4-yl)pyrrolo[1,2-f][11,2,4]triazin-2-ylamino)phenyl)acrylamide] the IC50 (H1975 cells) was 0.011 µM, the “Selective inhibitory activity against cell growth [IC50 (A431 cell)/IC50 (H1975 cell)]” value (H1975 cells) was 36.6 and the IC50 [1] was 0.025 µM. The “Selective inhibitory activity against targets at the cell level [IC50 (A431 cell)/IC50 (H1975 cell)]” value [1] was 12.1, the IC50 [2] was 0.303 µM and the IC50 (wild-type EGFR kinase) was 0.023 µM. For the same compound, the IC50 (A431 cells; 72 hours) was 0.403 µM, the IC50 (NIH3T3 cells; 72 hours) was 5.46 µM and the “Selective inhibitory activity against enzymes [IC50 (EGFR WT)/IC50 (T790M/L858R)]” value [3] was 11.5. The IC50 [3] was 0.002 µM.
In the case of `C=CC(=O)Nc1cc(Nc2ncc3ccc(-c4cnc5c(ccn5C)c4)n3n2)c(OC)cc1N(C)CCN(C)C` [Compound J-7, N-(2-((2-(dimethylamino)ethyl)(methyl)amino)-4-methoxy-5-(7-(1-methyl-1H-pyrrolo[2,3-b]pyridin-5-yl)pyrrolo[1,2-f][1,2,4]triazin-2-ylamino)phenyl)acrylamide], the IC50 (H1975 cells) is reported as 0.01 µM, the “Selective inhibitory activity against cell growth [IC50 (A431 cell)/IC50 (H1975 cell)]” value (H1975 cells) is reported as 23.1 and the IC50 (wild-type EGFR kinase) is reported as 0.005 µM. For the same compound, the IC50 (A431 cells; 72 hours) was 0.231 µM, the IC50 (NIH3T3 cells; 72 hours) was 3.38 µM and the “Selective inhibitory activity against enzymes [IC50 (EGFR WT)/IC50 (T790M/L858R)]” value [3] was 2.5. It also gave an IC50 [3] of 0.002 µM.
`C=CC(=O)Nc1cc(Nc2ncc3ccc(C4CC4)n3n2)c(OC)cc1N(C)CCN(C)C` [Compound J-8, N-(5(7-cyclopropylpyrrolo[1,2-f][1,2,4]triazin-2-ylamino)-2-((2-(dimethylamino)ethyl)(methyl)amino)-4-methoxyphenyl)acrylamide] was tested, and the IC50 (H1975 cells) was 0.097 µM, the “Selective inhibitory activity against cell growth [IC50 (A431 cell)/IC50 (H1975 cell)]” value (H1975 cells) was 32.9 and the IC50 [1] was 0.163 µM. For the same compound, the “Selective inhibitory activity against targets at the cell level [IC50 (A431 cell)/IC50 (H1975 cell)]” value [1] was 3, the IC50 [2] was 0.495 µM and the IC50 (wild-type EGFR kinase) was 0.112 µM. For the same compound, the IC50 (A431 cells; 72 hours) was 3.19 µM, the “Selective inhibitory activity against enzymes [IC50 (EGFR WT)/IC50 (T790M/L858R)]” value [3] was 56 and the IC50 [3] was 0.002 µM.
In the case of `C=CC(=O)Nc1cc(Nc2ncc3ccc(-c4cnc5ccccc5c4)n3n2)c(OC)cc1N(C)CCN(C)C` [Compound J-10, N-(2-((2-(dimethylamino)ethyl)(methyl)amino)-4-methoxy-5-(7-(quinolin-3-yl)pyrrolo[1,2-f][1,2,4]triazin-2-ylamino)phenyl)acrylamide], the IC50 (H1975 cells) is reported as 0.009 µM, the “Selective inhibitory activity against cell growth [IC50 (A431 cell)/IC50 (H1975 cell)]” value (H1975 cells) is reported as 16.3 and the IC50 (wild-type EGFR kinase) is reported as 0.003 µM. The IC50 (A431 cells; 72 hours) was 0.147 µM, the IC50 (NIH3T3 cells; 72 hours) was 3.27 µM and the “Selective inhibitory activity against enzymes [IC50 (EGFR WT)/IC50 (T790M/L858R)]” value [3] was 3. The IC50 [3] was 0.001 µM.
In the case of `C=CC(=O)Nc1cc(Nc2ncc3ccc(C)n3n2)c(OC)cc1N1CCC(N(C)C)CC1` [Compound J-14, N-(2-(4-(dimethylamino)piperidin-1-yl)-4-methoxy-5-(7-methylpyrrolo[1,2-f][1,2,4]triazin-2-ylamino)phenyl)acrylamide], the IC50 (H1975 cells) is reported as 0.126 µM, the IC50 (A431 cells; 72 hours) is reported as 3.56 µM and the IC50 (NIH3T3 cells; 72 hours) is reported as 7.77 µM.
For `C=CC(=O)Nc1cc(Nc2ncc3ccc(C4CC4)n3n2)c(OC)cc1N1CCC(N(C)C)CC1` [Compound J-15, N-(5(7-cyclopropylpyrrolo[1,2-f][1,2,4]triazin-2-ylamino)-2-(4-(dimethylamino)piperidin-1-yl)-4-methoxyphenyl)acrylamide], the IC50 (wild-type EGFR kinase) was over 1 µM, the “Selective inhibitory activity against enzymes [IC50 (EGFR WT)/IC50 (T790M/L858R)]” value [3] was 3.8 and the IC50 [3] was 0.262 µM.
`C=CC(=O)Nc1cc(Nc2cn3c(-c4ccn(C)c4)cnc3cn2)c(OC)cc1N(C)CCN(C)C` [Compound J-16, N-(2-((2-(dimethylamino)ethyl)(methyl)amino)-4-methoxy-5-(3(1-methyl-1H-pyrrol-3-yl)imidazo[1,2-a]pyrazin-6-ylamino)phenyl)acrylamide] was tested, and the IC50 (H1975 cells; Homo sapiens, NCI-H1975) was 0.388 µM, the “Selective inhibitory activity against cell growth [IC50 (A431 cell)/IC50 (H1975 cell)]” value (H1975 cells) was 3 and the IC50 [1] was 0.171 µM. The “Selective inhibitory activity against targets at the cell level [IC50 (A431 cell)/IC50 (H1975 cell)]” value [1] was 1.2, the IC50 [2] was 0.211 µM and the IC50 (A431 cells; Homo sapiens, A-431, 72 hours) was 1.15 µM. The IC50 (NIH3T3 cells; Mus musculus, NIH3T3, 72 hours) was over 10 µM.
With `C=CC(=O)Nc1cc(Nc2cn3c(-c4cccnc4)cnc3cn2)c(OC)cc1N(C)CCN(C)C` [Compound J-17, N-(2-((2-(dimethylamino)ethyl)(methyl)amino)-4-methoxy-5-(3(pyridin-3-yl)imidazo[1,2-a]pyrazin-6-ylamino)phenyl)acrylamide] the IC50 (H1975 cells; Homo sapiens, NCI-H1975) was 0.424 µM, the “Selective inhibitory activity against cell growth [IC50 (A431 cell)/IC50 (H1975 cell)]” value (H1975 cells) was 7 and the IC50 [1] was 0.734 µM. For the same compound, the “Selective inhibitory activity against targets at the cell level [IC50 (A431 cell)/IC50 (H1975 cell)]” value [1] was 1.6, the IC50 [2] was 1.16 µM and the IC50 (A431 cells; Homo sapiens, A-431, 72 hours) was 2.95 µM. The IC50 (NIH3T3 cells; Mus musculus, NIH3T3, 72 hours) was over 10 µM.
With `C=CC(=O)Nc1cc(Nc2cn3c(-c4cnn(C)c4)cnc3cn2)c(OC)cc1N(C)CCN(C)C` [Compound J-18, N-(2-((2-(dimethylamino)ethyl)(methyl)amino)-4-methoxy-5-(3(-methyl-1H-pyrazol-4-yl)imidazo[1,2-α]pyrazin-6-ylamino)phenyl)acrylamide] the IC50 (H1975 cells) was 0.251 µM, the “Selective inhibitory activity against cell growth [IC50 (A431 cell)/IC50 (H1975 cell)]” value (H1975 cells) was 6.2 and the IC50 (A431 cells; 72 hours) was 1.56 µM. The IC50 (NIH3T3 cells; 72 hours) was over 10 µM.
In the case of `C=CC(=O)Nc1cc(Nc2cn3c(-c4cnn(C)c4)cnc3cn2)c(OC)cc1N1CCC(N(C)C)CC1` [Compound J-19, N-(2-(4-(dimethylamino)piperidin-1-yl)-4-methoxy-5-(3(1-methyl-1H-pyrazol-4-yl)imidazo[1,2-α]pyrazinyl 6-amino)phenyl)acrylamide], the IC50 (H1975 cells) is reported as 0.243 µM, the “Selective inhibitory activity against cell growth [IC50 (A431 cell)/IC50 (H1975 cell)]” value (H1975 cells) is reported as 5 and the IC50 [1] is reported as 0.289 µM. For the same compound, the “Selective inhibitory activity against targets at the cell level [IC50 (A431 cell)/IC50 (H1975 cell)]” value [1] was 1.13, the IC50 [2] was 0.327 µM and the IC50 (A431 cells; 72 hours) was 1.21 µM. The IC50 (NIH3T3 cells; 72 hours) was over 10 µM.
`C=CC(=O)Nc1cc(Nc2ncc3c(C)cc(-c4cnn(C)c4)n3n2)c(OC)cc1N(C)CCN(C)C` [Compound J-20, N-(2-((2-(dimethylamino)ethyl)(methyl)amino)-4-methoxy-5-(5-methyl-7-(1-methyl-1H-pyrazol-4-yl)pyrrolo[1,2-F][1,2,4]triazin-2-ylamino)phenyl)acrylamide] was tested, and the IC50 (wild-type EGFR kinase) was 0.294 µM, the “Selective inhibitory activity against enzymes [IC50 (EGFR WT)/IC50 (T790M/L858R)]” value [3] was 24.5 and the IC50 [3] was 0.012 µM.
With `C=CC(=O)Nc1cc(Nc2ncc3c(C)cc(-c4cnn(C)c4)n3n2)c(OC)cc1N1CCC(N(C)C)CC1` [Compound J-21, N-(2-(4-(dimethylamino)piperidin-1-yl)-4-methoxy-5-(5-methyl-7-(1-methyl-1H-pyrazol-4-yl)pyrrolo[1,2-F][1,2,4]triazin-2-ylamino)phenyl)acrylamide] the IC50 (wild-type EGFR kinase) was over 1 µM, the “Selective inhibitory activity against enzymes [IC50 (EGFR WT)/IC50 (T790M/L858R)]” value [3] was 3.4 and the IC50 [3] was 0.294 µM.
